The source of these data is patent US11414425B2 (priority 2018, dated 2022).

Bounds are passed on as bounds.

For series [1], the system named is aged-impaired (AI) rats. Kind of series: Morris water maze behavioral task. The class given is in vivo, rat. Conditions: 100 μg ICV. An excerpt: Another cognitive test that may be used to assess the effects of a test compound on the cognitive impairment of a CNS disorder model animal is the Morris water maze. A water maze is a pool surrounded with a novel set of patterns relative to the maze. […] The subject is trained to locate a submerged escape platform hidden underneath the surface of the pool. During the training trial, a subject is released in the maze (pool) from random starting positions around the perimeter of the pool. The starting position varies from trial to trial. […] After a delay period following the last training trial, a retention test in the absence of the escape platform is given to assess spatial memory. The subject's level of preference for the location of the (now absent) escape platform, as measured by, e.g., the time spent in that location or the number of crossings of that location made by the mouse, indicates better spatial memory, i.e., treatment of cognitive impairment. The preference for the location of the escape platform under different treatment conditions, can then be compared for efficacy of the test compound in treating cognitive impairment associated with CNS disorders.
The effects of 6,6 dimethyl-3-(3-hydroxypropyl)thio-1-(thiazol-2-yl)-6,7-dihydro-2-benzothiophen-4(5H)-one on the in vivo spatial memory retention of aged-impaired (AI) rats were assessed in a Morris water maze behavioral task. A water maze is a pool surrounded with a novel set of patterns relative to the maze.
Cognitively impaired aged rats were implanted unilaterally with a cannula into the lateral ventricle. Stereotaxic coordinates were 1.0 mm posterior to bregma, 1.5 mm lateral to midline, and 3.5 mm ventral to the skull surface. After about a week of recovery, the rats were pre-trained in a water maze for 2 days (6 trials per day) to locate a submerged escape platform hidden underneath the surface of the pool, in which the escape platform location varied from day to day. No intracerebroventricular (ICV) infusion was given during pre-training.
After pre-training, rats received ICV infusion of either 100 μg 6,6 dimethyl-3-(3-hydroxypropyl)thio-1-(thiazol-2-yl)-6,7-dihydro-2-benzothiophen-4(5H)-one (n=6) in 5 μl DMSO or vehicle DMSO (n=5) 40 min prior to water maze training and testing. Training consisted of 8 trials per day for 2 days where the hidden escape platform remained in the same location. Rats were given 60 seconds to locate the platform with a 60 seconds inter-trial interval. The rats were given a probe test (120 seconds) 24 hr. after the end of training where the escape platform was removed. During the training, there were 4 blocks, where each block had 4 training trials.
During a test trial 24 hr. after training, the escape platform was removed. […]

In series [2] the target is T1, GABAAα5 receptor (Rattus norvegicus, UniProt P18508+P19969).
T1 construct: occupancy in the hippocampus (a region of high GABAAα5 receptor density); from tissue; host or cells: rat brain in vivo: hippocampus versus cerebellum
Kind of series: in vivo. The class given is in vivo, Long Evans rats. Conditions: i.v.; for effect on binding of Ro 15-4513 in hippocampus / effect on binding/levels of Ro 15-4513 in cerebellum: 0.01-10 mg/kg. From the text:
Food and water were available ad libitum.

For series [3], the system named is aged-impaired (AI) rats. Put plainly: Radial Arm Maze (RAM) behavioral task, spatial memory retention. Format: in vivo, rat. Conditions: four-hour delay RAM. From the text:
A Radial Arm Maze (RAM) behavioral task is one example of a cognitive test, specifically testing spacial memory (Chappell et al. Neuropharmacology 37: 481-487, 1998). The RAM apparatus consists of, e.g., eight equidistantly spaced arms. A maze arm projects from each facet of a center platform. A food well is located at the distal end of each arm. Food is used as a reward. Blocks can be positioned to prevent entry to any arm. Numerous extra maze cues surrounding the apparatus may also be provided. After habituation and training phases, spatial memory of the subjects may be tested in the RAM under control or test compound-treated conditions. As a part of the test, subjects are pretreated before trials with a vehicle control or one of a range of dosages of the test compound. At the beginning of each trial, a subset of the arms of the eight-arm maze is blocked. Subjects are allowed to obtain food on the unblocked arms to which access is permitted during this initial “information phase” of the trial. Subjects are then removed from the maze for a delay period, e.g., a 60 second delay, a 15 minute delay, a one-hour delay, a two-hour delay, a six hour delay, a 24 hour delay, or longer) between the information phase and the subsequent “retention test,” during which the barriers on the maze are removed, thus allowing access to all eight arms. […] The identity and configuration of the blocked arms vary across trials. The number of “errors” the subjects make during the retention test phase is tracked. An error occurs in the trial if the subjects entered an arm from which food had already been retrieved in the pre-delay component of the trial, or if it re-visits an arm in the post-delay session that had already been visited. A fewer number of errors would indicate better spatial memory. The number of errors made by the test subject, under various test compound treatment regimes, can then be compared for efficacy of the test compound in treating cognitive impairment associated with CNS disorders.
The effects of methyl 3,5-diphenylpyridazine-4-carboxylate on the in vivo spatial memory retention of aged-impaired (AI) rats were assessed in a Radial Arm Maze (RAM) behavioral task using vehicle control and four different dosage levels of methyl 3,5-diphenylpyridazine-4-carboxylate (0.1 mg/kg, 0.3 mg/kg, 1 mg/kg and 3 mg/kg, ip). RAM behavioral tasks were performed on eight AI rats. All five treatment conditions (vehicle and four dosage levels) were tested on all eight rats.
The RAM apparatus used consisted of eight equidistantly-spaced arms. An elevated maze arm (7 cm width×75 cm length) projected from each facet of an octagonal center platform (30 cm diameter, 51.5 cm height). Clear side walls on the arms were 10 cm high and were angled at 65° to form a trough. […]

Series [4] deals with MAM-treated rats. The settings on record: cited from earlier work.
Series [5] has as its target T2, GABAA receptors (α5β2γ2) (Homo sapiens, UniProt P18507+P31644).
T2 construct: expressed in transfected cells
Put plainly: Positive allosteric modulator activity: potentiation of EC20 GABA current in oocytes. The class given is cell-based. Conditions: read-out: GABA α5 Functional Data (potentiation of EC20 GABA); @ 100 nM; ranges. In a few lines: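 Oocytes were injected with 1 ng cDNA (α5:β2:γ2 1:1:10 by weight) and recorded on day 2 (day 3 with 20% less cDNA) by two-electrode clamp (3M KCl electrodes, 0.5-3 megaohms) under MBS superfusion at 3 mL/min. Potentiation (%) is Itest divided by IGABA. Each oocyte received one concentration only.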

The target in series [6] is α5β3γ2 GABAA receptors (Homo sapiens, UniProt P18507+P31644). Kind of series: [3H]Ro15-1788 binding, membranes of Ltk cells stably expressing α5β3γ2 GABAA receptors. The settings on record: ranges; inhibition of [3H]Ro15-1788 binding.
The mark [7] stands for this setting: probe test 24 hr. after training.

T1 sequence (P19969 32-464): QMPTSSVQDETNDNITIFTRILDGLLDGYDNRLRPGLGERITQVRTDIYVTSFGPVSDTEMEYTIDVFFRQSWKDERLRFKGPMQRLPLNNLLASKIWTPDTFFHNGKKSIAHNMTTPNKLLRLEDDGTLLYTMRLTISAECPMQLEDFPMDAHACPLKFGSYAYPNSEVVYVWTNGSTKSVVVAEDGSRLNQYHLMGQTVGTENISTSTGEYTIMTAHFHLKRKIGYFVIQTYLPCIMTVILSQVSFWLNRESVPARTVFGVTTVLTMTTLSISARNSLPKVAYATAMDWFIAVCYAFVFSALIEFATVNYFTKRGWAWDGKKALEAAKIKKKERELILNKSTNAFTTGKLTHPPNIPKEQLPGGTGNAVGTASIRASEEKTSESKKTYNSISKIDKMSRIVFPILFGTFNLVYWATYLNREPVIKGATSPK
T1 sequence (P18508 39-466): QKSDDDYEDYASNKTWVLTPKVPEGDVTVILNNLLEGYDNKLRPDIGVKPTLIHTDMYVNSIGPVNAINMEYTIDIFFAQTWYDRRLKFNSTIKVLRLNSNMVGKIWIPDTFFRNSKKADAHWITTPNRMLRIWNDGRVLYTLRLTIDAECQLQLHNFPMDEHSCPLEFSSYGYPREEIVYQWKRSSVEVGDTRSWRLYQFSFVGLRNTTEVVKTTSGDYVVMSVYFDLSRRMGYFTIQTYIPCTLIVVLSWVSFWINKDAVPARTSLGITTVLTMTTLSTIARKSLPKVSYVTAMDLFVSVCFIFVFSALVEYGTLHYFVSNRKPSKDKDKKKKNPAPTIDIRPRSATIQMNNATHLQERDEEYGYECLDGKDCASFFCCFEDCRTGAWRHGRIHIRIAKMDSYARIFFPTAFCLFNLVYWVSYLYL
Sequence of α5β3γ2 GABAA receptors (P31644 32-462): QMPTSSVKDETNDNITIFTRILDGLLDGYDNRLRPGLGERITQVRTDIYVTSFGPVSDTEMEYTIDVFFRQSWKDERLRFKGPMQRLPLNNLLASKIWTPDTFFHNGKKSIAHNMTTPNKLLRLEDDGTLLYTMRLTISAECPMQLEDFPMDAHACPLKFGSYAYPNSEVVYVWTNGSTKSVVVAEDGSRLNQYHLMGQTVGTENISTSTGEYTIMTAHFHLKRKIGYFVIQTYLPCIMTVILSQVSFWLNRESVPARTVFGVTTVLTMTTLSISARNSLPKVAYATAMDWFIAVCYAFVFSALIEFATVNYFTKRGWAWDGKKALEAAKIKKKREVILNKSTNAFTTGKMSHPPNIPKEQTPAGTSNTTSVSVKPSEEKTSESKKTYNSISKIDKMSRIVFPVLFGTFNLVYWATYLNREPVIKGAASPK
Sequence of α5β3γ2 GABAA receptors (P28472 26-473 partner): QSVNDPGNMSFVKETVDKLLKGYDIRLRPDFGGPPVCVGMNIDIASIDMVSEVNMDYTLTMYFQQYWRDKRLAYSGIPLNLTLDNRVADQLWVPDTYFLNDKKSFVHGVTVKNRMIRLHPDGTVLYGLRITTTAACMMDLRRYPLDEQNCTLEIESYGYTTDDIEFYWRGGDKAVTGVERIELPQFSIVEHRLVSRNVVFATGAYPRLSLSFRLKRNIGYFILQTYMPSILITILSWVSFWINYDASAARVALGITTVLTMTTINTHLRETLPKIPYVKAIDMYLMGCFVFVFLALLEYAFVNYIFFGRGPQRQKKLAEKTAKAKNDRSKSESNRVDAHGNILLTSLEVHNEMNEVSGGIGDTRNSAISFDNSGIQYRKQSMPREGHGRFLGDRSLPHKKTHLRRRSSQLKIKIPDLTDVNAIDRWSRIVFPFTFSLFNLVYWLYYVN
Sequence of α5β3γ2 GABAA receptors (P18507 40-475): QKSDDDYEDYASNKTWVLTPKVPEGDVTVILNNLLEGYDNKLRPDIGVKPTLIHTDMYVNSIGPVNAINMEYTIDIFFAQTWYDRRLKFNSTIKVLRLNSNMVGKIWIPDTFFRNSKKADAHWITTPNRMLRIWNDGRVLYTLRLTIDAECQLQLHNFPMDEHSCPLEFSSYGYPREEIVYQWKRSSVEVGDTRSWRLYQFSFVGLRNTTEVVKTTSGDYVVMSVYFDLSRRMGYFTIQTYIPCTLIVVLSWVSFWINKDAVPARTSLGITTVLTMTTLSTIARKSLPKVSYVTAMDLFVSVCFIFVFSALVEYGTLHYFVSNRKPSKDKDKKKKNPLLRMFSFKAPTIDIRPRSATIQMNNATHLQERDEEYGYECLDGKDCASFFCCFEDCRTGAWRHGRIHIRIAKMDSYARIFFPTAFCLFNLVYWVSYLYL
T2 sequence (P31644 32-462): as the sequence (P31644 32-462) above
T2 sequence (P47870 25-512, further chain): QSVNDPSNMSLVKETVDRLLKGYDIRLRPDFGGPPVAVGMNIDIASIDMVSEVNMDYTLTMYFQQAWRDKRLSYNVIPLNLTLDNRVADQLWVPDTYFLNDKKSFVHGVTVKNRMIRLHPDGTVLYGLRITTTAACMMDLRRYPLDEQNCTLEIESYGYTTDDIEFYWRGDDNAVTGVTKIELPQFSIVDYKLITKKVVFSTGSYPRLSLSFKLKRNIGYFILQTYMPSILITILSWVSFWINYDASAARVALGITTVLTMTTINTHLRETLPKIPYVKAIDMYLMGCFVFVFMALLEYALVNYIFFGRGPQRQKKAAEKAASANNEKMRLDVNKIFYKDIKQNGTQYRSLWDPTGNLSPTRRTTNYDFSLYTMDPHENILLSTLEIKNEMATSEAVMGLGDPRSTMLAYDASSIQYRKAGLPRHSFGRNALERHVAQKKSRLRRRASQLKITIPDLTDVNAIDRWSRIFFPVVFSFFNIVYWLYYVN
T2 sequence (P18507 40-475): as the sequence (P18507 40-475) above

Regarding `CC1(C)CC(=O)c2c(SCCCO)sc(-c3nccs3)c2C1` [6,6 dimethyl-3-(3-hydroxypropyl)thio-1-(thiazol-2-yl)-6,7-dihydro-2-benzothiophen-4(5H)-one], in series [1] (block 1 of training), the “time to find the escape platform” value was “about 24 seconds”. Moreover, the “time to find the escape platform” value in series [1] (block 4 of training) is recorded as “about 9.6 seconds”. In series [1] (setting [7]), the “number of crossings of target annulus vs opposite annulus” value is recorded as “crossed the “target annulus” more often” and the “time in target annulus vs opposite annulus” value was “spent significantly more time in the target annulus”.

On to `CCOC(=O)c1ncn2c1Cn1c(C)nnc1-c1cc(OC)ccc1-2` [ethyl 3-methoxy-7-methyl-9H-benzo[f]imidazo[1,5-a][1,2,4]tri], for which, in series [2], the “effect on binding of Ro 15-4513 in hippocampus” value is given as “reduced Ro 15-4513 binding in hippocampus” and the “effect on binding/levels of Ro 15-4513 in cerebellum” value is “without affecting cerebellum levels of Ro 15-4513”. Moreover, the “GABAA α5 receptor occupancy” value in series [2] (10 mg/kg) is over 90%. Besides, the “memory performance relative to vehicle control treatment” value in series [3] (3 mg/kg, t(7)=4.13, p=0.004, or t(7)=3.08, p=0.018) is listed as “significantly improved memory performance”. The “memory performance relative to vehicle control treatment” value in series [3] (10 mg/kg, t(7)=2.82, p=0.026) is on record as “significantly improved memory performance”.

Ro 15-4513: in series [2] (tracer 1 μg/kg, after vehicle), the “levels of Ro 15-4513 in cerebellum” value came out at 0.36 ± 0.02 ng/g, the “levels of Ro 15-4513 in hippocampus” value turned out to be 1.93 ± 0.05 ng/g and the “levels of Ro 15-4513 in hippocampus compared with cerebellum” value was over 5 fold.

On to `CCOC(=O)c1ncn2c1Cn1c(C)nnc1-c1cc(OC)ccc1-2` [Ethyl 3-methoxy-7-methyl-9H-benzo[f]imidazo[1,5-a][1,2,4]tri], for which, in series [2], the “effect on binding of Ro 15-4513 in hippocampus” value is given as “blocked the binding of Ro154513 in the hippocampus” and the “effect on binding/levels of Ro 15-4513 in cerebellum” value is “did not affect binding of Ro15413 in the cerebellum”.

`C#Cc1ccc2c(c1)C(c1ccccc1F)=N[C@H](C)c1c(C(=O)OCC)ncn1-2` [SH-053-2′F—R—CH3]: the “number of spontaneously active DA neurons in the ventral tegmental area (VTA)” value in series [4] (MAM rats, systemic and infused into ventral HPC) is “reduces the number of spontaneously active DA neurons in the ventral tegmental area (VTA) of MAM rats to levels observed in saline-treated rats”. Moreover, the “locomotor response to amphetamine” value in series [4] (MAM-treated rats) is on record as “reduced”. In addition, in series [4] (saline-treated and MAM-treated animals), the “cortical-evoked responses of HPC neurons” value was “diminished cortical-evoked responses”.

Usually Ki stands for the equilibrium dissociation constant of an inhibitor or competing ligand from its target. A high value points to a looser hold on the target. For the molecule `Clc1ccc2c(c1)-n1nncc1Cc1c(C3=NC[C@H](c4ccccc4)O3)ncn1-2` [Compound 513], in series [5], the activation at 0.1 µM is 20 to 50%. Moreover, in series [6], the inhibition constant (Ki) was under 100 nM.

As for `COc1ccc(C#Cc2ncn3c2Cc2cnnn2-c2cc(OC(F)F)ccc2-3)cn1` [Compound 555], in series [5], the activation at 0.1 µM was in the range of 5 to 20%. The Ki in series [6] is under 100 nM.

Regarding `COc1ccc2c(c1)-n1nncc1Cc1c(C3=N[C@H](c4ccc(Cl)cc4)CO3)ncn1-2` [Compound 517], the activation at 0.1 µM in series [5] fell in the range of 20 to 50%. In series [6], this molecule displayed a Ki of under 100 nM.

`COCc1nnc2n1Cc1c(C#Cc3ccc(OC)nn3)ncn1-c1ccc(OC)cc1-2` [Compound 712]: the activation at 0.1 µM in series [5] was over 50%. This molecule also yielded a Ki in series [6] of under 100 nM.

`COCc1nnc2n1Cc1c(C#Cc3ncc(OC)cn3)ncn1-c1ccc(Cl)cc1-2` [Compound 574]: in series [5], the activation at 0.1 µM was over 50%. The same molecule displayed a Ki in series [6] of under 100 nM.

As for `COCc1nnc2n1Cc1c(C#Cc3ccc(C(C)C)cc3)ncn1-c1ccc(OC)cc1-2` [Compound 716], the activation at 0.1 µM in series [5] fell in the range of 5 to 20%. Further, in series [6], the Ki was under 100 nM.

As for `FC(F)Oc1ccc2c(c1)-n1nncc1Cc1c(C#CC3(c4ccccc4)CC3)ncn1-2` [Compound 504], the activation at 0.1 µM in series [5] was in the range of 5 to 20%. The Ki in series [6] is under 100 nM.

As to `COCc1nnc2n1Cc1c(C#Cc3ccc(OC)cn3)ncn1-c1ccc(OC)cc1-2` [Compound 603], in series [5], the activation at 0.1 µM was over 50%. The molecule also gave a Ki in series [6] of under 100 nM.

Regarding `COc1ccc2c(c1)-n1nncc1Cc1c(C#Cc3cnc(C)[nH]3)ncn1-2` [Compound 668], in series [5], the activation at 0.1 µM is over 50%. In series [6], the inhibition constant (Ki) is under 100 nM.

With `Fc1ccc(C#Cc2ncn3c2Cc2cnnn2-c2cc(OC(F)F)ccc2-3)cc1` [Compound 500], the activation at 0.1 µM in series [5] was 5 to 20%. Besides, in series [6], the Ki was under 100 nM.

For `COCc1nnc2n1Cc1c(C#Cc3ccc(OC(C)C)nc3)ncn1-c1ccc(OC)cc1-2` [Compound 711], in series [5], the activation at 0.1 µM was in the range of 5 to 20%. The molecule further came in with a Ki in series [6] of under 100 nM.

Consider `COc1ccc(C#Cc2ncn3c2Cn2c(COC(F)F)nnc2-c2cc(Cl)ccc2-3)cn1` [Compound 616], for which the activation at 0.1 µM in series [5] is 5 to 20%. This molecule registered a Ki in series [6] of under 100 nM.
